From ChEMBL document CHEMBL5356996, “Discovery of Novel NLRP3 Inflammasome Inhibitors Composed of an Oxazole Scaffold Bearing an Acylsulfamide” (ACS Med Chem Lett, 2023)
≈ marks a conversion by molar mass, not a printed value.

Key:
Mus musculus [1] = assay: Anti-inflammatory activity against adriamycin-induced glomerulonephritis BALB/c mouse model assessed as decrease in urine albumin-to-creatinine ratio administered orally for 2 weeks and measured for 24 hrs; assay type: functional, organism-based; details: dose 30-300 mg/kg, route po, time 15.0 day
Cytochrome P450 3A4 = Cytochrome P450 3A4 (Homo sapiens, UniProt P08684); assay: Inhibition of CYP3A4 in human liver microsomes using testosterone and midazolam as substrates by LC-MS/MS analysis; assay type: ADME, Microsome
Cytochrome P450 3A4, sequence (P08684 whole entry): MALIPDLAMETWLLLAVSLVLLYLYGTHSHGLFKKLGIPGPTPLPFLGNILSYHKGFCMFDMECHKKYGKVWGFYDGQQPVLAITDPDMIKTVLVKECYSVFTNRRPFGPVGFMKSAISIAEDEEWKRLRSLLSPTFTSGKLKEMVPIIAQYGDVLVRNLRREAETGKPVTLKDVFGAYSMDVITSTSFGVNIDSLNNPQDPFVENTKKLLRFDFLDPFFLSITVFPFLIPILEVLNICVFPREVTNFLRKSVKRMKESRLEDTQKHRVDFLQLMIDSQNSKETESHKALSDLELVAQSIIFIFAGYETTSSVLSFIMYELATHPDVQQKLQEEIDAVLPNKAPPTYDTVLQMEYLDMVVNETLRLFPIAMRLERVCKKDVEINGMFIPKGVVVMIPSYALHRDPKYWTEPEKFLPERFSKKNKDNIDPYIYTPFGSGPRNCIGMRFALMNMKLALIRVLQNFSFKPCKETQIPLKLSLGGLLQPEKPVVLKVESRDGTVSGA

[2] = Volume of distribution at steady state in Sprague-Dawley rat at 0.3 mg/kg, iv measured for 25 hrs; assay type: ADME, organism-based; details: in vivo, read-out: Vdss
[3] = Metabolic stability in dog liver microsomes assessed as compound remaining incubated for 60 mins; assay type: ADME, Canis lupus familiaris, Microsome; details: read-out: Stability
[4] = Mean residence time in Sprague-Dawley rat at 1 mg/kg, po; assay type: ADME, organism-based; details: in vivo
[5] = Mean residence time in Sprague-Dawley rat at 0.3 mg/kg, iv; assay type: ADME, organism-based; details: in vivo
[6] = Metabolic stability in rat liver microsomes assessed as compound remaining incubated for 60 mins; assay type: ADME, Microsome; details: read-out: Stability
[7] = Plasma protein binding in rat by equilibrium dialysis method; assay type: ADME, cell-free; details: read-out: PPB (converted)
THP-1 = assay: cells; details: Homo sapiens
[8] = Plasma protein binding in mouse by equilibrium dialysis method; assay type: ADME, cell-free; details: read-out: PPB (converted)
[9] = Total body clearance in Sprague-Dawley rat at 0.3 mg/kg, iv measured for 25 hrs; assay type: ADME, organism-based; details: in vivo
Mus musculus [10] = assay: Anti-inflammatory activity against LPS-stimulated C57BL/6J mouse assessed as reduction in IL-1beta level administered orally pretreated for 0.5 hrs before LPS challenge and measured after 4 hrs by ELISA; assay type: functional, organism-based; details: dose 1-10 mg/kg, route po, time 4.5 hrs
[11] = Metabolic stability in mouse liver microsomes assessed as compound remaining incubated for 60 mins; assay type: ADME, Microsome; details: read-out: Stability
[12] = Lipophilicity, logD of the compound; assay type: physicochemical; details: octanol/water
[13] = Cmax in Sprague-Dawley rat at 1 mg/kg, po measured for 25 hrs; assay type: ADME, organism-based; parameters: dose 1 mg/kg, time 25 hrs, route po; details: in vivo
[14] = Plasma protein binding in human by equilibrium dialysis method; assay type: ADME, cell-free; details: read-out: PPB (converted)
[15] = target: NLR family CARD domain-containing protein 4 (Homo sapiens, UniProt Q9NPP4); assay: Inhibition of NLRC4 (unknown origin) in PMA-differentiated human THP-1 cells assessed as inhibition of IL-1 beta production pretreated for 15 mins followed by flagellin stimulation and measured after 18 hrs by AlphaLISA assay; assay type: cell-based
NLR family CARD domain-containing protein 4, sequence (Q9NPP4 whole entry, the tested form may be a part): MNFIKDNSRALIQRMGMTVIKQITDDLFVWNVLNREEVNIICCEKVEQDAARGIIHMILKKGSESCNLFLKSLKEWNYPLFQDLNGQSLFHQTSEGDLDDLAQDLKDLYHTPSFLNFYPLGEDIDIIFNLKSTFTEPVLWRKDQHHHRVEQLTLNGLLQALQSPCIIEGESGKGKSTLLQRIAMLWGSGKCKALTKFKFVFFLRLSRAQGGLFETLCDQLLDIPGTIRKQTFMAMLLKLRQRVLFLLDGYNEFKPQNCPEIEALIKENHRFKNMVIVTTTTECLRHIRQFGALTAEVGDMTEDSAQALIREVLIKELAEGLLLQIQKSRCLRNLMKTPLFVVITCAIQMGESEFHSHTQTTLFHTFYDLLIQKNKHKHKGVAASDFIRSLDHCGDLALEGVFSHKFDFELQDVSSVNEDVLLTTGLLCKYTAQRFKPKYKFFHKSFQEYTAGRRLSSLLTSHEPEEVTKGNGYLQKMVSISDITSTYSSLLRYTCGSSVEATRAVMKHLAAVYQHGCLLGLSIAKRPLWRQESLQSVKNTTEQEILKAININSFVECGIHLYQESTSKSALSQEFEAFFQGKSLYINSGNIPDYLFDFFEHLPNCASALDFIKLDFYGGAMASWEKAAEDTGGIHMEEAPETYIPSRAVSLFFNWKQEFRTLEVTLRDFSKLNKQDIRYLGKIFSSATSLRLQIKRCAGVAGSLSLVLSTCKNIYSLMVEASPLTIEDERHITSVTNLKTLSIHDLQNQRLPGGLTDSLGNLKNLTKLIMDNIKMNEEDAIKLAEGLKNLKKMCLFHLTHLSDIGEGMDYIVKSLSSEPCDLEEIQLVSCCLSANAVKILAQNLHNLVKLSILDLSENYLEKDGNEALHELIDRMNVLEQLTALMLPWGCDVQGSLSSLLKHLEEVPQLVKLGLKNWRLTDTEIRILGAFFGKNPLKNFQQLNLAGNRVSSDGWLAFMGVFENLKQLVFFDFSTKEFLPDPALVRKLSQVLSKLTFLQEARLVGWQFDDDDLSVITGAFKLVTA

[16] = Solubility of the compound in FaSSIF at pH 6.5 incubated for 4 to 24 hrs by LC/MS analysis; assay type: physicochemical; details: time 4-24 hrs
[17] = Apparent permeability of the compound in human Caco-2 cells at 25 umol/L incubated for 2 hrs by LC/MS/MS analysis; assay type: ADME, cell-based; details: dose 25 µmol/L
[18] = Oral bioavailability in Sprague-Dawley rat at 1 mg/kg measured for 25 hrs; assay type: ADME, organism-based; details: in vivo
[19] = Metabolic stability in human liver microsomes assessed as compound remaining incubated for 60 mins; assay type: ADME, Microsome; details: read-out: Stability
[20] = target: T1, NACHT, LRR and PYD domains-containing protein 3 (Homo sapiens, UniProt Q96P20); assay: Inhibition of NLRP3 in LPS/nigericin-induced human THP-1 cells assessed as inhibition of IL-1beta production pretreated with LPS for 3 hrs followed by incubation with compound for 15 mins and later stimulated with nigericin for 90 mins by AlphaLISA assay; assay type: cell-based
T1 sequence (Q96P20 whole entry, the tested form may be a part): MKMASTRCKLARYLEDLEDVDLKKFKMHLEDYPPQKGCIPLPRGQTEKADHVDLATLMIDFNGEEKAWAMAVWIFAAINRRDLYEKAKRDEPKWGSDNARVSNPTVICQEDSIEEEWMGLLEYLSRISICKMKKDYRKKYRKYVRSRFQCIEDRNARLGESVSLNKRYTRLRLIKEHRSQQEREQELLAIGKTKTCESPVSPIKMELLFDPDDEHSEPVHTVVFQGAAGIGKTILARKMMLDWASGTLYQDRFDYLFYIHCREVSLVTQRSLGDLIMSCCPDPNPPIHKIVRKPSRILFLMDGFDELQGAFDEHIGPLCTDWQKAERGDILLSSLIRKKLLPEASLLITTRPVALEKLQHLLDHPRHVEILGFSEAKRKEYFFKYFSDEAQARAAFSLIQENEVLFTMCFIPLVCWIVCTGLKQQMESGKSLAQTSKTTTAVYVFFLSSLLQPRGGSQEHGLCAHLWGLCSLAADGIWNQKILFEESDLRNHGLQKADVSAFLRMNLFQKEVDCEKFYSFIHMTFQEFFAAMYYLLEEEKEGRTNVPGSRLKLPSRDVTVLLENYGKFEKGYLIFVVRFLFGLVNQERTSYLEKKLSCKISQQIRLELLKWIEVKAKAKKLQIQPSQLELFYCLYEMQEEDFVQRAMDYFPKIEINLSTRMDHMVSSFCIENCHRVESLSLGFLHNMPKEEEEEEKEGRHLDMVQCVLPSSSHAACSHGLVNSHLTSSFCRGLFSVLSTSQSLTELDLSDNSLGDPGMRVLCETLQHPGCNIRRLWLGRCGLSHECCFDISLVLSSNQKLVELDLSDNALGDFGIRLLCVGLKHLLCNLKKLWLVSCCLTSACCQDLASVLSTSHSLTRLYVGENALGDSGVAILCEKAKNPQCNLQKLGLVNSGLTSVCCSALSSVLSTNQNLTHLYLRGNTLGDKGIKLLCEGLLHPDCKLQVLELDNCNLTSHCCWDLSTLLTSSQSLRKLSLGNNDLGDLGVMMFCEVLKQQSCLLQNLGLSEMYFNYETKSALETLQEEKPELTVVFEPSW

[21] = target: T1, NACHT, LRR and PYD domains-containing protein 3; assay: Inhibition of NLRP3 in human whole blood assessed as inhibition of IL-1beta production pretreated with LPS for 3 hrs followed by incubation with compound for 0.5 hrs and later incubated with ATP for 1.5 hrs by AlphaLISA assay; assay type: tissue-based

| logD [12] | solubility [16] | IC50 [20] | Structure (SMILES) | further results |
| --- | --- | --- | --- | --- |
| 2.4 | 444 µM (≈ 199 µg/mL) | – | Cc1ccc(C(F)(F)F)cc1Nc1nc(C(=O)NS(=O)(=O)N2CCCOCC2)co1 | Activity (Mus musculus [1]): Dose-Dependent Effect; IC50 (Cytochrome P450 3A4): > 10 µM; Vd [2]: 0.28 L/kg; remaining at 1 h [3]: 90%; MRT [4]: 6.3 h; MRT [5]: 4.7 h; remaining at 1 h [6]: 90.3%; fraction unbound [7]: 0.034; IC50 (THP-1): 28 nM; fraction unbound [8]: 0.062; clearance [9]: 1 mL/min/kg; Activity (Mus musculus [10]): Dose-Dependent Effect; remaining at 1 h [11]: 45.5%; Cmax [13]: 3.8 µM; fraction unbound [14]: 0.009; IC50 [15]: > 30 µM; Papp at 2 h, 25 µM [17]: 27.8 ×10⁻⁶ cm/s; bioavailability [18]: 121%; remaining at 1 h [19]: 71.2% |
| – | – | > 30 µM | CCOC(=O)c1cnc(Nc2c3c(cc4c2CCC4)CCC3)[nH]1 | – |
| 3.1 | – | – | Cc1ccc(C(F)(F)F)cc1Nc1nc(C(=O)NS(=O)(=O)N2CCCCC2)co1 | fraction unbound [14]: < 0.001 |
| 3 | – | – | Cc1ccc(C(C)(C)C)cc1Nc1nc(C(=O)NS(=O)(=O)N(C)C)co1 | IC50 [21]: 7.7 µM |
| – | – | > 30 µM | CCOC(=O)c1cnc(Nc2c3c(cc4c2CCC4)CCC3)s1 | – |
| 4.6 | 11.1 µM (≈ 3.47 µg/mL) | – | CCOC(=O)c1cnc(Nc2c3c(cc4c2CCC4)CCC3)o1 | – |
| – | 43.9 µM (≈ 13.1 µg/mL) | > 30 µM | CNC(=O)c1cnc(Nc2c3c(cc4c2CCC4)CCC3)o1 | – |
| 2 | – | 0.51 µM | Cc1ccc(C)c(Nc2nc(C(=O)NS(=O)(=O)N(C)C)co2)c1 | IC50 [21]: 11 µM |
| 3.8 | 18.1 µM (≈ 7.28 µg/mL) | – | CN1CCN(C(=O)c2cnc(Nc3c4c(cc5c3CCC5)CCC4)o2)S1(=O)=O | Papp at 2 h, 25 µM [17]: 15.5 ×10⁻⁶ cm/s |
| 2.9 | – | – | Cc1ccc(C2CCC2)cc1Nc1nc(C(=O)NS(=O)(=O)N(C)C)co1 | – |
| – | – | > 10 µM | COC(=O)[C@@H]1CCCN1C(=O)Nc1c2c(cc3c1CCC3)CCC2 | – |
| 2.2 | – | – | CC(=O)N1CCCN(S(=O)(=O)NC(=O)c2coc(Nc3cc(C(F)(F)F)ccc3C)n2)CC1 | fraction unbound [14]: 0.018 |
| 2.4 | – | – | Cc1ccc(C(F)(F)F)cc1Nc1nc(C(=O)NS(=O)(=O)N2CCCN(S(C)(=O)=O)CC2)co1 | fraction unbound [14]: 0.011 |
| 2.3 | > 475 µM | – | CN(C)S(=O)(=O)NC(=O)c1cnc(Nc2c3c(cc4c2CCC4)CCC3)o1 | Papp at 2 h, 25 µM [17]: 1.2 ×10⁻⁶ cm/s |
| – | – | > 30 µM | COC(=O)c1ccnc(Nc2c3c(cc4c2CCC4)CCC3)n1 | – |
| 2.7 | – | 0.14 µM | Cc1ccc(C(C)C)cc1Nc1nc(C(=O)NS(=O)(=O)N(C)C)co1 | IC50 [21]: 6.8 µM |
| 2.4 | – | – | Cc1ccc(C(F)(F)F)cc1Nc1nc(C(=O)NS(=O)(=O)N(C)C)co1 | fraction unbound [14]: 0.004 |
| 2.9 | – | – | CC(C)c1ccc2c(c1Nc1nc(C(=O)NS(=O)(=O)N(C)C)co1)CCC2 | IC50 [21]: 5.8 µM |
| 2.1 | – | – | Cc1ccc(C(F)(F)F)nc1Nc1nc(C(=O)NS(=O)(=O)N(C)C)co1 | IC50 [21]: 4.7 µM |
| 2.1 | 475 µM (≈ 172 µg/mL) | 6.8 µM | CS(=O)(=O)NC(=O)c1cnc(Nc2c3c(cc4c2CCC4)CCC3)o1 | Papp at 2 h, 25 µM [17]: 0.13 ×10⁻⁶ cm/s |
| 2.2 | – | 0.038 µM | Cc1ccc(C(F)(F)F)cc1Nc1nc(C(=O)NS(=O)(=O)N2CCOCC2)co1 | IC50 [21]: 8 µM; fraction unbound [14]: < 0.001 |
| – | 45.6 µM (≈ 12.9 µg/mL) | > 30 µM | NC(=O)c1cnc(Nc2c3c(cc4c2CCC4)CCC3)o1 | – |
| 3.3 | – | – | Cc1ccc(C(F)(F)F)cc1Nc1nc(C(=O)NS(=O)(=O)N(C)C(C)C)co1 | fraction unbound [14]: < 0.001 |
| 1.8 | 442 µM (≈ 126 µg/mL) | 2.4 µM | O=C(O)c1cnc(Nc2c3c(cc4c2CCC4)CCC3)o1 | Papp at 2 h, 25 µM [17]: 4 ×10⁻⁶ cm/s |
| 2.8 | 436 µM (≈ 170 µg/mL) | – | CN(C)S(=O)(=O)NC(=O)c1coc(Nc2c3c(cc4c2CCC4)CCC3)n1 | IC50 [21]: 7.8 µM; Papp at 2 h, 25 µM [17]: 48.5 ×10⁻⁶ cm/s |
| 2.3 | – | – | Cc1ccc2c(c1Nc1nc(C(=O)NS(=O)(=O)N(C)C)co1)CCC2 | IC50 [21]: 18 µM |
| – | – | > 10 µM | COC(=O)[C@H]1CCCN1C(=O)Nc1c2c(cc3c1CCC3)CCC2 | – |
| – | – | 8.9 µM | CCOC(=O)c1nnc(Nc2c3c(cc4c2CCC4)CCC3)o1 | – |
| – | – | > 30 µM | COC(=O)CN1CC(=O)N(c2c3c(cc4c2CCC4)CCC3)C1=O | – |
